From patent US10137171B2, “Methods of treatment using a pentapeptide derived from the C-Terminus of Glucagon-Like Peptide 1 (GLP-1)” (The General Hospital Corporation, priority 2011, dated 2018)
“Also recorded” adds a separate entry of the source. Where no end group is shown, it is not given here.

Tests used:
diet-induced obese mice [1] = experiment: Continuous osmopump infusion in very high-fat diet-induced obese mice: body weight, energy intake, Feed Efficiency; assay type: in vivo, mouse
Experimental: The data encompass twelve weeks, from week 2 to week 14 of continuous infusions of control vehicle and GLP-1(32-36)amide. GLP-1(32-36)amide was administered to mice via mini-osmopumps (Alzet #1004) at a rate of 40 nanomoles/Kg body weight/24 hours. Male C57bl/6j mice were placed on a high fat diet (Research Diets, #D12492, 60 kcal % fat) at six weeks of age and continued for 17 weeks before starting osmopump infusions at age 23 weeks. 1A. Line graph showing time-dependent changes in body weight (BW) over fourteen weeks of infusions of control vehicle and pentapeptide GLP-1(32-36)amide. (*) p<0.05 versus vehicle control; (**) p<0.04 versus vehicle control; (***) p<0.034; (#) p<0.01; (##) p<0.004; (###) p<0.0006, 0.0007; (####) p<0.0001. 1B. N=six mice per group. Values are means+/−SEMs. *p<0.013 peptide vs. vehicle. At week two of infusions of vehicle and pentapeptide the mice weighed 37.2 and 38.2 gms (averages of six mice), respectively. N=six mice per group.
FIG. 3 is a bar graph showing feed efficiency at the end of 12 week infusion. GLP-1(32-36)amide infusions in diet-induced obese mice lowers the Feed Efficiency index. The data are the means+/−SEMs (*p<0.06 pentapeptide vs. vehicle) of the values calculated from the […] period of infusions of control vehicle and GLP-1(32-36)amide shown in FIG. 4. The Feed efficiency (FE) is a calculation of the body weight (gms) divided by the energy intake kcal) in the food consumed. […] Basal energy expenditure in mice treated with pentapeptide is increased compared to mice treated with control vehicle. N=6 mice per group.
Male C57bl/6 mice at […] were placed on a very high-fat diet (VHFD, 60% fat, Research Diets) for 17 weeks. At week 17 the mice on the high-fat diet, corresponding to 23 weeks of age, mini-osmopumps containing either vehicle or GLP-1(32-36)amide were implanted subcutaneously for delivery of peptide or vehicle over 16 weeks. Forty nanomoles (20 micrograms) of GLP-1(32-36) was diluted in saline containing 0.1% human serum albumin and were infused at a rate of forty nanomoles/kgBW/day for 16 weeks to achieve an estimated concentration of approximately 100 pM similar to that reported by infusions of GLP-1(7-36)amide. For infusions longer than 4 weeks additional osmopumps with peptide were implanted at the end of each 4 weeks infusion. Body weights were recorded weekly. Food consumption was assessed every 3 to 4 days by weight. Energy intake (kcal/gm BW/week) and Feed Efficiency Index (FEI) were evaluated during the infusions of vehicle or peptide. The latter provides a measure of the efficiency of caloric conversion to body weight and it is calculated by determining the grams of body weight gain per cage/Kcal of food consumed per cage, [21]. There was no observable change in the activities of the mice amongst the various experimental groups. Mouse care was conducted under approval by the MGH Institutional Animal Care Use Committee.

diet-induced obese mice [2] = experiment: Intraperitoneal glucose tolerance test (ipGTT); assay type: in vivo, mouse; conditions: glucose 2 g/kg BW ip, overnight fasted, VHFD 24 weeks, 16 weeks infusion (FIG. 5C)
Experimental: FIGS. 5C-D are a pair of line graphs Plasma glucose levels (FIG. 5C) and (FIG. 5D) Plasma insulin levels after an intraperitoneal glucose administration ([…] BW ip) in overnight fasted mice fed in VHFD for 24-weeks and 16-weeks of continuous infusions of vehicle or GLP-1(32-36)amide. ***p<4E-03 vehicle vs. GLP-1(32-36)amide, *p<0.01 vehicle vs. GLP-1(32-36)amide, **p<0.004 vehicle vs. GLP-1(32-36)amide, *****p<1.7E-05 vehicle vs. GLP-1(32-36)amide, ****p<6.7 E-04 vehicle vs. GLP-1(32-36)amide.
Mice were maintained in a normal light/dark cycle according to the standard protocols of the MGH Animal Care and Use Committee. Mice were tested with age matched or litter mate controls and 6 mice per group are required. […] The following morning the mice were prepared for the glucose tolerance test: animals were weighed, the tail was nicked with a fresh razor blade by a horizontal cut of the very end, ˜35 to 50 microliters of blood is massaged from the tail to an eppendorf tube which is immediately placed on ice, baseline blood glucose is measured by the glucose oxidase method using a Glucometer Elite glucometer, and 2 grams/kg body weight of 20% D-glucose is drawn up in a Beckton Dickenson D 29 gage ½″ insulin syringe (one unit of D-glucose for every gram of body weight). Animals were then transferred to individually labeled 1000 cc cardboard soup cups with the lid liners removed.
Following animal preparation, glucose was injected into the intraperitoneal cavity. At 10, 20, 30, 60, 120, and 140 minutes blood glucose is sampled from the tail of each mouse by gently massaging a small drop of blood onto the glucometer strip. Glucose injections and blood glucose sampling is timed to take approximately the same amount of time per animal (i.e. 25 animals are injected in 12 minutes and blood glucose sampling of those same 25 animals should also take about 12 minutes) so that the sample times are accurate for each animal.

## LVKGRamide (LVKGR-NH2) [GLP-1(32-36)amide, pentapeptide derived from the C-terminus of the glucoincretin hormone GLP-1]
diet-induced obese mice [1]; VHFD mice, 40 nanomoles/kg BW/day s.c. osmopump, measured over ten weeks (FIG. 1B)
  average weekly change in body weight gain, less than control vehicle: 50%
diet-induced obese mice [1]; VHFD mice, average of six mice, vehicle 37.2
  body weight at week two of infusions: 38.2 gms
diet-induced obese mice [1]; VHFD mice, continuous infusion 40 nanomoles/kg BW/day (FIG. 1A)
  time at which inhibition of weight gain reached statistical significance: by week five; also recorded: as early as five weeks
diet-induced obese mice [1]; VHFD mice, ten weeks of infusion, vehicle 1.11±0.025
  energy intake (food intake): 1.15±0.030 Kcal/g body weight/week
diet-induced obese mice [1]; VHFD obese mice (FIG. 3)
  Feed Efficiency decrease compared to vehicle: approximately 50%
diet-induced obese mice [1]; end of 12 week infusion, p<0.06 vs vehicle (FIG. 3)
  Feed Efficiency index (effect in words): lowers
diet-induced obese mice [1]; end of the sixteen week infusion, high fat diet-induced obese mice
  body weights decreased compared to vehicle control: 50%
diet-induced obese mice [2]
  glycemic response in ipGTT: normal
